We go through four molecules from patent US7186784B2, “Phosphorus-containing carboxylic acid derivatives process for preparations thereof and flame retardant” (NOF Corporation, priority 2001, dated 2007).

The nature of series [1]: Storage stability test in blend with epoxy resin YDPN 638. Conditions: 1:1 by weight with epoxy resin YDPN 638, room temperature; for Stability Test: 30 days, viscosity increase observed visually.
From the text: Then a visual observation was made about an increase in the viscosity thereof.
Series [2] in a line: Dissolution on preparing the resin composition. The settings on record: 20.0 parts M-Acid with Epicote 828, CIC acid derivative and Nofcure-LC-1, mixed in a vial. The series is classed as physicochemical. From the text: An attempt was made to prepare a resin composition by mixing and agitating in a vial, 5.06 parts by weight of Epicote 828, 4.94 parts by weight of a derivative from CIC acid by n-propylvinyl ether, 20.0 parts by weight of unmodified M-Acid and 0.21 parts by weight of Nofcure-LC-1. However, the M-Acid was not dissolved, thereby forming non-homogeneous and opaque suspension.

For `CCOP(=O)(CC(CC(=O)O)C(=O)O)OCC` (stereo not shown) [DEHP-ItaA], in series [1], the “Stability Test: time before hardening (figure in parentheses)” value (“Stability Test: time before hardening” for short) stood at 5 min and the “Stability Test” value is given as “Hardened”.

For the molecule `O=C(O)CC(CP1(=O)Oc2ccccc2-c2ccccc21)C(=O)O` (stereo not shown) [M-Acid], the “dissolution in resin composition” value in series [2] was “not dissolved”.

Consider `O=C(O)CCC(CC(=O)O)(C(=O)O)P(=O)(O)O` (stereo not shown) [PBTC, 2-phosphonobutane-1,2,4-tricarboxylic acid], for which, in series [1], the “Stability Test: time before hardening” value came out at 15 min and the “Stability Test” value is “Hardened”.

Regarding `O=C(O)CC(CP(=O)(Oc1ccccc1)Oc1ccccc1)C(=O)O` (stereo not shown) [Ref. Example. 7], in series [1], the “Stability Test: time before hardening” value came to 5 min and the “Stability Test” value is “Hardened”.
